Experimental findings from US9527847B2, “Treatment of lupus, fibrotic conditions, and inflammatory myopathies and other disorders using PI3 kinase inhibitors” (INFINITY PHARMACEUTICALS, INC., priority 2012, dated 2016) are described below.

Molecules are shown by their SMILES.

By EC50 is commonly meant the midpoint of the concentration-response curve. Lower therefore signals greater potency. The IC50 is the concentration needed to halve the response being measured.

Assay [1] relates to B cell proliferation. Nature of the assay: B cell proliferation EC50 (Table 3). The class given is cell-based. The settings on record: in vitro.
For assay [2], the target named is T1, PI3K α (Homo sapiens, UniProt P42336).
T1 construct: purchased Upstate
Nature of the assay: In vitro IC50, PI3K α (Table 3). Format: biochemical. The protocol:
(§1) An exemplary system is PI 3-Kinase (human) HTRF™ Assay from Upstate. […] The total reaction volume is approximately 20 μl per well. […] The reaction is stopped by adding 5 μl of Stop Solution per well and then 5 μl of Detection Mix is added per well.

The target of assay [3] is T2, PI3K γ (Homo sapiens, UniProt P48736).
T2 construct: purchased Sigma
Nature of the assay: In vitro IC50, PI3K γ (Table 3). Format: biochemical. The method, then:
as §1

Assay [4] deals with T3, PI3K β (Homo sapiens, UniProt P42338).
T3 construct: purchased Upstate
Nature of the assay: In vitro IC50, PI3K β (Table 3). The class given is biochemical. The method, then: as §1

Assay [5] concerns NZBWF1/J mice. As to the kind of experiment: Murine NZB/W F1 lupus model. Format: in vivo, mouse. The settings on record: 2 mg/kg PO QD, vs vehicle. An excerpt:
Female NZBWF1/J mice (n=60) that were 8 weeks old on arrival and weighed approximately 35-51 grams (mean 42 g) at enrollment (mouse age approx. 23 weeks) were obtained from The Jackson Laboratory, Bar Harbor, Me. (stock number 100008). Animals were identified by a distinct number of ink marks at the base of the tail delineating animal number. After enrollment, all cages were labeled with protocol number, group number, and animal numbers.
Mice were terminated at age 43 weeks (day 140).
All dose solutions were prepared to deliver in 10 ml/kg (0.3 ml/30 g mouse).
Body weights were measured and recorded prior to study initiation for randomization, on the first day of dosing prior to dosing, and weekly throughout the study. Body weights were also recorded at scheduled termination points and as needed if test subjects appeared to decrease in weight by visual inspection. The animals were observed daily for significant clinical signs, morbidity and mortality.
Urine from each animal was tested weekly (beginning at mouse age 23 weeks) for proteinuria using Clinitech Multistick test strips (Bayer).
At necropsy, animals were anesthetized with isoflorane and bled via cardiac puncture for serum (for clinical chemistry analysis) and plasma (for Anti-dsDNA ELISA and PK). Terminal urine was collected and assessed. Spleens and kidneys (paired) were collected, weighed, and placed in 10% NBF. Serum obtained at necropsy was sent to Antech Diagnostics for analysis. Terminal plasma samples were split with half being used for Anti-dsDNA ELISA and the other half being shipped to the sponsor.
Anti-dsDNA IgG analysis was performed on days 0, 49, 98, and 140 (mouse age 23, 30, 37, and 43 weeks). Anti-dsDNA IgG levels were determined using an Anti-dsDNA IgG ELISA Kit (Alpha Diagnostic, kit #5120, lot #90903K4) following manufacturer's instructions.
Blood samples for clinical chemistry evaluation were collected at termination via cardiac puncture from Isoflurane anesthetized animals into serum separator microtainer tubes. Serum was sent to Antech Diagnostics for analysis.
The following parameters were measured: Albumin (ALB), Albumin: Globulin ratio (A/G), Alkaline phosphatase (ALK), Alanine aminotransferase (ALT), Aspartate aminotransferase (AST), Calcium (CA), Magnesium (Mg), Phosphorous (P), Globulin (GLOB), Electrolytes (Sodium (Na), Potassium (K), Chloride (Cl)), Gamma glutamyltransferase (GGT), Total bilirubin (TBILI), Amylase (AMY), Lipase (LIP), Osmolality, Triglycerides (TRIG), Total cholesterol (CHOL), Urea nitrogen (BUN), Creatinine (CREAT), Glucose (GLU), Total protein (TP), and Creatinine kinase (CPK).
Histopathologic evaluation was performed on kidneys. Kidneys from all surviving animals were examined microscopically by a board certified veterinary pathologist and observations were entered into a computer-assisted data retrieval system. Kidney sections were stained with Masson's Trichrome, or Hematoxylin and Eosin. To maintain blinding of the analysis, slides were labeled with the animal number with no reference to treatment group.
Kidneys were scored according to the following system (developed by Chan O, Madaio M P, Shlomchik M J. The roles of B cells in MRL/lpr murine lupus. Annals New York Academy of Sciences, 1997; 815:75-82), modified to suit the lesion severity.
• 0=Normal. • 1=Focal or multifocal, minimal to mild, early proliferative. • 2=Multifocal mild to moderate or mild diffuse proliferative. • 3=Diffuse moderate proliferative with or without multifocal severe areas. • 4=Marked diffuse proliferative, with crescents/sclerosis, multifocal protein casts present. • 5=Severe diffuse proliferative, with crescents/sclerosis, diffuse protein casts present. […]

Assay [6] concerns mouse EAE model. Nature of the assay: Experimental Autoimmune Encephalomyelitis (EAE) model, semi-therapeutic, 28 day. As to conditions: FTY720 3 mg/kg QD p.o. The class given is in vivo. The protocol:
EAE was induced in 60 mice using Hooke Kit™ MOG35-55/CFA Emulsion PTX (Hooke Laboratories, Lawrence Mass.), catalog number EK-0110, lot number 0104, per manufacturer's recommended protocol, except that pertussis toxin was diluted with phosphate buffered saline to achieve 1.4× and 1.3× solution (starting from the 1.5× solution in the kit). This was done to optimize disease severity for this particular study.
Mice were injected subcutaneously, at two sites in the back, with the emulsion component of the kit (containing MOG35-55). One site of injection was in the area of the upper back, approximately 1 cm caudal of the neck line. The second site was in the area of the lower back, approximately 2 cm cranial of the base of the tail. Injection volume was 0.1 mL at each site. Within 2 hours of the injection of emulsion, and then again 24 hours after the injection of emulsion, the pertussis toxin component of the kit was administered intraperitoneally. Volume of each injection was 0.1 mL.
Vehicle for Group 2 (FTY720) was water and 2% ethanol. Vehicle for all other groups was water, 0.5% CMC (low viscosity), and 0.05% Tween80. Mice were dosed at the same time every day, +/−1 hour. The last day of dosing was Day 27 after immunization.
Readouts were EAE scores and changes in body weight. Mice were scored daily from Day 7 to Day 28, and body weights were measured three times/week (Monday, Wednesday and Friday), starting on Day −1.
EAE was scored on scale 0 to 5: • 0 No obvious changes in motor functions of the mouse in comparison to non-immunized mice. When picked up by the tail, the tail has tension and is erect. Hind legs are usually spread apart. When the mouse is walking, there is no gait or head tilting. • 1 Limp tail. When the mouse is picked up by the tail, instead of being erect, the whole tail drapes over finger. • 2 Limp tail and weakness of hind legs. When mouse is picked up by tail, legs are not spread apart, but held closer together. When the mouse is observed walking, it has a clearly apparent wobbly walk. • 3 Limp tail and complete paralysis of hind legs (most common); or limp tail with paralysis of one front and one hind leg; or all of: severe head tilting, walking only along the edges of the cage, pushing against the cage wall, and spinning when picked up by the tail. • 4 Limp tail, complete hind leg and partial front leg paralysis. Mouse is minimally moving around the cage but appears alert and feeding Usually, euthanasia is recommended after the mouse scores level 4 for 2 days. When the mouse is euthanized because of severe paralysis, score of 5 is entered for that mouse for the rest of the experiment. • 5 Complete hind and complete front leg paralysis, no movement around the cage; or mouse is spontaneously rolling in the cage; or mouse is found dead due to paralysis.
At the end of the study 3 luxol fast blue (LFB) stained sections and 3 H&E sections, from lumbar, thoracic, and cervical spinal cord of all mice in Groups 1, 2, 3, and 6 and the 3 naïve mice were prepared and analyzed.
Inflammatory foci were counted in each H&E stained section. Each group of approximately 20 cells was counted as one focus. Foci larger than 20 cells were counted based on an estimate of how many foci of 20 cells were present.
The demyelination score represents an estimate of demyelinated area for each section as follows. For LFB stained slides, the demyelinated area was estimated based on intensity of blue staining of myelin. For H&E stained sections, demyelinated area was estimated by looking for interruption of normal structure—pallor and vacuolation consistent with edema and demyelination, and dilated axons. • 0—no demyelination (less than 5% demyelinated area) • 1—5 to 20% demyelinated area • 2—20 to 40% demyelinated area • 3—40 to 60% demyelinated area • 4—60 to 80% demyelinated area • 5—80 to 100% demyelinated area.
The number of apoptotic cells in each of the three H&E sections was determined.

T3 sequence (P42338 whole entry): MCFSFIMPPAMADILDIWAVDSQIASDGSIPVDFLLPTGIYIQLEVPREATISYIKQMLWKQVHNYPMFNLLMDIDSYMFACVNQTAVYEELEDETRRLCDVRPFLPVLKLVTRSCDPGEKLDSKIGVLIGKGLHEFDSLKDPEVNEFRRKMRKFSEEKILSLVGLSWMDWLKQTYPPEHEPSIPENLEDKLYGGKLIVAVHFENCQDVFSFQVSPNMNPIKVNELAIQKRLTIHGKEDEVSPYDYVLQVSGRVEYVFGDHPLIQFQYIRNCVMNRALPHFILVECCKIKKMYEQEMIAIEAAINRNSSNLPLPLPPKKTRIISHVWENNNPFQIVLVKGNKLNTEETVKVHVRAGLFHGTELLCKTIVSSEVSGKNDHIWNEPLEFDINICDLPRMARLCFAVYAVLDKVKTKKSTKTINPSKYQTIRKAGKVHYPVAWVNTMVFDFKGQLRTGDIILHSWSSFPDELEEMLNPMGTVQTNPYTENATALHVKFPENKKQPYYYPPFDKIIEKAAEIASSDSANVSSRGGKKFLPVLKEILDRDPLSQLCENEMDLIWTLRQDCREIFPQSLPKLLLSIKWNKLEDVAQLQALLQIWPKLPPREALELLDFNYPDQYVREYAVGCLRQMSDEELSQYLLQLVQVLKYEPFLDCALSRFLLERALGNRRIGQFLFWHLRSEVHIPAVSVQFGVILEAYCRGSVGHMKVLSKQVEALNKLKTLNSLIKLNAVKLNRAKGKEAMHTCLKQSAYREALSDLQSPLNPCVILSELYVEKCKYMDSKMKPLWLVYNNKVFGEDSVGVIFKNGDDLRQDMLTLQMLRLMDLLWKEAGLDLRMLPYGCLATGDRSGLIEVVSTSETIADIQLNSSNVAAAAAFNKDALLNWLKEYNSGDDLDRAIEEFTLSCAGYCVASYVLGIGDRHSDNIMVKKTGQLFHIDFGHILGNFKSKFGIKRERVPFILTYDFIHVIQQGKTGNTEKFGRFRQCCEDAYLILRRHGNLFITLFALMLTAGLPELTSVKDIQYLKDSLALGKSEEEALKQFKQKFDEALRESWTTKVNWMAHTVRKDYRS
T3 sequence (P27986 whole entry partner): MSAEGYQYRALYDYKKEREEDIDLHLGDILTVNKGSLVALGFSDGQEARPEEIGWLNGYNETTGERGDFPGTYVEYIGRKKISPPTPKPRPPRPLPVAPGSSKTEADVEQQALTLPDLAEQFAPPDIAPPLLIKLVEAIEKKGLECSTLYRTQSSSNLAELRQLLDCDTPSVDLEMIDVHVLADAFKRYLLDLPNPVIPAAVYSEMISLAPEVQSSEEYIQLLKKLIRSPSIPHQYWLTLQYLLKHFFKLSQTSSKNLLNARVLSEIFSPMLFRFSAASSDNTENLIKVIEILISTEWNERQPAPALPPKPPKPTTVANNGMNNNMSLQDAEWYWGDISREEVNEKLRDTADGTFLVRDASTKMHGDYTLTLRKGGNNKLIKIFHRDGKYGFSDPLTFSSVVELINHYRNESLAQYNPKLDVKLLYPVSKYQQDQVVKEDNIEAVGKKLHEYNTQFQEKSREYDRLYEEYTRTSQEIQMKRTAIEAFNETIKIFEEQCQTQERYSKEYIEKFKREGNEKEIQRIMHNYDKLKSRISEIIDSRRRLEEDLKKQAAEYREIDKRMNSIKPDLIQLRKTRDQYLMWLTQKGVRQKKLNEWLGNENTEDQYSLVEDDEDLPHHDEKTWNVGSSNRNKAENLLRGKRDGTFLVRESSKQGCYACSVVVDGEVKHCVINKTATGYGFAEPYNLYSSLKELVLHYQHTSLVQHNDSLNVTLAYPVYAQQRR
T1 sequence (P42336 whole entry): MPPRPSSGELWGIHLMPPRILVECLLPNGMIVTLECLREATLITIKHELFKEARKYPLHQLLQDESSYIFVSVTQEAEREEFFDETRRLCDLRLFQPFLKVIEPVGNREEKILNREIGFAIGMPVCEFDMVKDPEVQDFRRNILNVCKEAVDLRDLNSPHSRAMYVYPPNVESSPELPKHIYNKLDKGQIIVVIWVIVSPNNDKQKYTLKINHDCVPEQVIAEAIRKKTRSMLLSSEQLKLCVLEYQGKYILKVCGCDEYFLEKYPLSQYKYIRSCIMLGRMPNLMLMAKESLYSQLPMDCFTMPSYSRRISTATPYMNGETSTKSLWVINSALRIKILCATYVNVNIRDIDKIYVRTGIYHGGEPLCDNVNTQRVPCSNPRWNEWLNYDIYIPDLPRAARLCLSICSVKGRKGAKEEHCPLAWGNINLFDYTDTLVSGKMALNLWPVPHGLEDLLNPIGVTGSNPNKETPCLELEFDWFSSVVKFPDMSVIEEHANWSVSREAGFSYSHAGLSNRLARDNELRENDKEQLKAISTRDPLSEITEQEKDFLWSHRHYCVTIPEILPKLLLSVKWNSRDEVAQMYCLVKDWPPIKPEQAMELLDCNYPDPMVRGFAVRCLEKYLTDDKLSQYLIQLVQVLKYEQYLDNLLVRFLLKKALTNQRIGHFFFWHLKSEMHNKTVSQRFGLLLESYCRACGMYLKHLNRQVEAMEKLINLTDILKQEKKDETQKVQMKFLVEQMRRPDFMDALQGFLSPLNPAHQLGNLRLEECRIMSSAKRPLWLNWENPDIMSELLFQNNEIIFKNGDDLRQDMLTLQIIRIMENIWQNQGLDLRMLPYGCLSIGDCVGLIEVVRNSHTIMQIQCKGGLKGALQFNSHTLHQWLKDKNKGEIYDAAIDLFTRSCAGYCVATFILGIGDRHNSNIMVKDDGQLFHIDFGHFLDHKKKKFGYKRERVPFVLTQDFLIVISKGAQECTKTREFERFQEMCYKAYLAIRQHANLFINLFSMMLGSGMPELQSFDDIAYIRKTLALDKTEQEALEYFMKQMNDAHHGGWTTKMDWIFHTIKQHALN
T1 sequence (P27986 whole entry partner): as the sequence (P27986 whole entry partner) above
T2 sequence (P48736 whole entry): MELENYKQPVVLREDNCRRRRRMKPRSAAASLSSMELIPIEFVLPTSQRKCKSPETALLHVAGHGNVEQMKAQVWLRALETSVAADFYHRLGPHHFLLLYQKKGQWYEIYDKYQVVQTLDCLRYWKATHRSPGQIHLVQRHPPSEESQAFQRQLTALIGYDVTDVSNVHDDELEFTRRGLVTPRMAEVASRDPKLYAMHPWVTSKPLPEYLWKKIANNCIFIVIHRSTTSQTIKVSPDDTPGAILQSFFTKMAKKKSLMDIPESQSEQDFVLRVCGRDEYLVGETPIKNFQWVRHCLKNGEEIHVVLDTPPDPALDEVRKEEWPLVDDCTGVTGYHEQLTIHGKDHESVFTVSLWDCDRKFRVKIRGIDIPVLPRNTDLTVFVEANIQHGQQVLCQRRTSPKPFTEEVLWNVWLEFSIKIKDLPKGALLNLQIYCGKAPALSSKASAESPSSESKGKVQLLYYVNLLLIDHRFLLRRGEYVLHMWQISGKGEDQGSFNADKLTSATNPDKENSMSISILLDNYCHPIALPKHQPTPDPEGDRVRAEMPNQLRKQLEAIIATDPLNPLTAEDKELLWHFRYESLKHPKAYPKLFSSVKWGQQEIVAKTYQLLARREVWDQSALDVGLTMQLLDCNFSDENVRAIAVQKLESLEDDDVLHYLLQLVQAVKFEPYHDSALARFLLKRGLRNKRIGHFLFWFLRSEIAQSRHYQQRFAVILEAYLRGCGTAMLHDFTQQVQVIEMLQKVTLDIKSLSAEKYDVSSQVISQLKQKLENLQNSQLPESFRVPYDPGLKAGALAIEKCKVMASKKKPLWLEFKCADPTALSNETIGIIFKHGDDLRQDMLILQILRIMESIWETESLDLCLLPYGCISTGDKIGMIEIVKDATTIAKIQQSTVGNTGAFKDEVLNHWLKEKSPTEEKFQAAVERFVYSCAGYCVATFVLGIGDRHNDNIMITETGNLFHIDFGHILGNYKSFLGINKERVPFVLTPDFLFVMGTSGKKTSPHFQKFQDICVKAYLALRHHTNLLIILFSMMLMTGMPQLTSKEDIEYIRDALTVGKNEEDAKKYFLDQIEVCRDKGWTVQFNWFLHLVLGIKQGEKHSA

`Cc1ccccc1-n1c(Cn2nc(I)c3c(N)ncnc32)cc2cccc(C)c2c1=O` [Compound 6] gave an EC50 in assay [1] of under 100 nM.

Regarding `Cc1cccc2cc(Cn3nc(C#CCO)c4c(N)ncnc43)n(-c3ccccc3F)c(=O)c12` [Compound 7], the IC50 in assay [2] is under 10000 nM; in assay [3], under 100 nM; in assay [4] it was under 1000 nM. The compound further registered an EC50 in assay [1] of under 100 nM.

On to `Cc1ccccc1-n1c(Cn2nc(-c3cc(O)cc(F)c3)c3c(N)ncnc32)cc2cccc(C)c2c1=O` [Compound 8], for which the EC50 in assay [1] is under 1000 nM. In assay [4], this compound had a 50% inhibitory concentration (IC50) of over 10000 nM.

As for `C[C@@H]1C[C@H]2[C@@H]3CCC4=CC(=O)C=C[C@]4(C)[C@@]3(F)[C@@H](O)C[C@]2(C)[C@@]1(O)C(=O)CO` [Dex, dexamethasone, reference compound], in assay [5] (kidney histopathology), the Glomerulonephritis score reduction stood at 91%. Moreover, in assay [5], the “Interstitial nephritis score reduction” value is 95%, the Kidney weight increase was 20%, the “Perivascular inflammation score reduction” value is on record as 100% and the Spleen weight reduction was determined as 76%. Moreover, in assay [5], the “Summed histopathology scores reduction” value was 88%.

For the compound `CCCCCCCCc1ccc(CCC(N)(CO)CO)cc1` [FTY720, reference compound], in assay [6], the “MMS +/− SD” value is given as 1.65 +/− 1.23 and the “Median Day of Onset” value was 11.5 days. Further, the “End % body weight +/− SD” value in assay [6] (Day 27 relative to Day −1) was 110.0 +/− 7.4%. In addition, the “End score +/− SD” value in assay [6] (Day 28) is recorded as 0.45 +/− 0.44. For the same compound, in assay [6] (per spinal cord section), the “Inflammatory foci +/− SD” value is reported as 0.3 +/− 0.4. Besides, in assay [6] (score per section), the “Demyelination (LFB) +/− SD” value was 0.3 +/− 0.3.
